Drawing on patent US9573938B2 (priority 2012, dated 2017), this text covers IC50 for 22 molecules.

One assay addresses 2009 H1N1 influenza A endonuclease (PAN domain) (Influenza A virus, UniProt C3W5S0). Kind of assay: biochemical. On the set-up: species or system Influenza A (pandemic 2009 H1N1). As to conditions: 500 nM or 50 nM enzyme; fluorescence change over time at 37 degrees Celsius; read-out: IC50 (uM) using either 500 nM or 50 nM enzyme.
One may read the IC50 as the concentration that inhibits the measured activity by half. For `O=c1[nH]c(-c2cccc(-c3nnn[nH]3)c2)ncc1O` [2-(3-(1H-Tetrazol-5-yl)phenyl)-5-hydroxypyrimidin-4(3H)-one], the IC50 is 0.48 µM.

For `O=c1[nH]c(-c2ccc(-c3nnn[nH]3)cc2)ncc1O` [2-(4-(1H-Tetrazol-5-yl)phenyl)-5-hydroxypyrimidin-4(3H)-one], the IC50 worked out at 0.15 µM.

Take `N#Cc1cccc(-c2ncc(O)c(=O)[nH]2)c1` [3-(5-Hydroxy-6-oxo-1,6-dihydropyrimidin-2-yl)benzonitrile]: the IC50 was determined as 0.25 µM.

Turning to `N#Cc1ccc(-c2ncc(O)c(=O)[nH]2)cc1` [4-(5-Hydroxy-6-oxo-1,6-dihydropyrimidin-2-yl)benzonitrile], the IC50 came to 0.52 µM.

With `O=c1[nH]cc(-c2ccc(F)cc2)cc1O` [5-(4-Fluorophenyl)-3-hydroxypyridin-2(1H)-one], the half-maximal inhibitory concentration (IC50) was 0.73 µM.

The same assay, now with this note: IC50 (uM) using either 500 nM or 50 nM enzyme, fluorescence change over time at 37 degrees Celsius.
As for `NC(=O)c1cccc(-c2cc(O)c(=O)[nH]c2-c2cccc(C(N)=O)c2)c1`, the IC50 was determined as 0.11 µM.

In turn, `NC(=O)c1ccc(-c2cc(O)c(=O)[nH]c2-c2ccc(C(N)=O)cc2)cc1` registered an IC50 of 0.23 µM.

`O=C(O)c1cccc(-c2cc(O)c(=O)[nH]c2-c2cccc(C(=O)O)c2)c1` [3,3′-(5-Hydroxy-6-oxo-1,6-dihydropyridine-2,3-diyl)dibenzoic acid] yielded an IC50 of 0.7 µM.

The molecule `O=C(O)c1cccc(-c2cc(O)c(=O)[nH]c2-c2ccc(F)cc2)c1` [3-(2-(4-Fluorophenyl)-5-hydroxy-6-oxo-1,6-dihydropyridin-3-yl)benzoic acid] came in with an IC50 of 0.035 µM.

As for `N#Cc1cccc(-c2cc(O)c(=O)[nH]c2-c2ccc(F)cc2)c1` [3-(2-(4-Fluorophenyl)-5-hydroxy-6-oxo-1,6-dihydropyridin-3-yl)benzonitrile], the midpoint of inhibition, the IC50, lay at 0.049 µM.

As for `O=C(O)c1cccc(-c2c[nH]c(=O)c(O)c2)c1` [3-(5-Hydroxy-6-oxo-1,6-dihydropyridin-3-yl)benzoic acid], the midpoint of inhibition, the IC50, lay at 1.79 µM.

`O=c1[nH]c(-c2ccc([N+](=O)[O-])cc2)c(-c2ccc([N+](=O)[O-])cc2)cc1O` [3-Hydroxy-5,6-bis(4-nitrophenyl)pyridin-2(1H)-one] showed an IC50 of 0.72 µM.

`O=c1[nH]c(-c2ccc(C(F)(F)F)cc2)ccc1O` [3-Hydroxy-6-(4-(trifluoromethyl)phenyl)pyridin-2(1H)-one] came in with an IC50 of 0.4 µM.

Take `COc1ccc(-c2ccc(O)c(=O)[nH]2)cc1` [3-Hydroxy-6-(4-methoxyphenyl)pyridin-2(1H)-one]: the IC50 was 1.2 µM.

`O=C(O)c1ccc(-c2cc(O)c(=O)[nH]c2-c2ccc(C(=O)O)cc2)cc1` [4,4′-(5-hydroxy-6-oxo-1,6-dihydropyridine-2,3-diyl)dibenzoic acid] displayed a half-maximal inhibitory concentration (IC50) of 0.9 µM.

The molecule `O=C(O)c1ccc(-c2c[nH]c(=O)c(O)c2)cc1` [4-(5-Hydroxy-6-oxo-1,6-dihydropyridin-3-yl)benzoic acid] returned an IC50 of 0.51 µM.

Take `N#Cc1ccc(Nc2cc(O)c(=O)[nH]c2-c2ccc(F)cc2)cc1` [4-((2-(4-Fluorophenyl)-5-hydroxy-6-oxo-1,6-dihydropyridin-3-yl)amino)benzonitrile]: the IC50 was found to be 1 µM.

The molecule `O=c1[nH]c(Br)c(Br)cc1O` [5,6-Dibromo-3-hydroxypyridin-2(1H)-one] had an IC50 of 1.5 µM.

For the molecule `O=c1[nH]c(-c2cccc(F)c2)c(-c2cccc(F)c2)cc1O` [5,6-bis(3-Fluorophenyl)-3-hydroxypyridin-2(1H)-one], the midpoint of inhibition, the IC50, lay at 0.044 µM.

With `O=c1[nH]c(-c2ccc(F)cc2)c(-c2cccc(-c3nnn[nH]3)c2)cc1O` [5-(3-(1H-Tetrazol-5-yl)phenyl)-6-(4-fluorophenyl)-3-hydroxypyridin-2(1H)-one], the IC50 was 0.034 µM.

On to `O=c1[nH]cc(-c2cccc(F)c2)cc1O` [5-(3-Fluorophenyl-3-hydroxypyridin-2(1H)-one], for which 0.74 µM corresponded to half-maximal inhibition (IC50).

On to `O=c1[nH]cc(Cc2ccc(F)cc2)cc1O` [5-(4-Fluorobenzyl)-3-hydroxypyridin-2(1H)-one], for which it took 8.6 µM to reach half-maximal inhibition (IC50).
